Results reported in PMC4669708 (Cell Death & Disease, 2015).

Columns and labels:
Assay in all cases: c-ponatinib pulldown LC-MS/MS
Type in all cases: binding
GAK = target: T1, GAK (Homo sapiens, UniProt O14976)
T1 sequence (O14976 1-1311): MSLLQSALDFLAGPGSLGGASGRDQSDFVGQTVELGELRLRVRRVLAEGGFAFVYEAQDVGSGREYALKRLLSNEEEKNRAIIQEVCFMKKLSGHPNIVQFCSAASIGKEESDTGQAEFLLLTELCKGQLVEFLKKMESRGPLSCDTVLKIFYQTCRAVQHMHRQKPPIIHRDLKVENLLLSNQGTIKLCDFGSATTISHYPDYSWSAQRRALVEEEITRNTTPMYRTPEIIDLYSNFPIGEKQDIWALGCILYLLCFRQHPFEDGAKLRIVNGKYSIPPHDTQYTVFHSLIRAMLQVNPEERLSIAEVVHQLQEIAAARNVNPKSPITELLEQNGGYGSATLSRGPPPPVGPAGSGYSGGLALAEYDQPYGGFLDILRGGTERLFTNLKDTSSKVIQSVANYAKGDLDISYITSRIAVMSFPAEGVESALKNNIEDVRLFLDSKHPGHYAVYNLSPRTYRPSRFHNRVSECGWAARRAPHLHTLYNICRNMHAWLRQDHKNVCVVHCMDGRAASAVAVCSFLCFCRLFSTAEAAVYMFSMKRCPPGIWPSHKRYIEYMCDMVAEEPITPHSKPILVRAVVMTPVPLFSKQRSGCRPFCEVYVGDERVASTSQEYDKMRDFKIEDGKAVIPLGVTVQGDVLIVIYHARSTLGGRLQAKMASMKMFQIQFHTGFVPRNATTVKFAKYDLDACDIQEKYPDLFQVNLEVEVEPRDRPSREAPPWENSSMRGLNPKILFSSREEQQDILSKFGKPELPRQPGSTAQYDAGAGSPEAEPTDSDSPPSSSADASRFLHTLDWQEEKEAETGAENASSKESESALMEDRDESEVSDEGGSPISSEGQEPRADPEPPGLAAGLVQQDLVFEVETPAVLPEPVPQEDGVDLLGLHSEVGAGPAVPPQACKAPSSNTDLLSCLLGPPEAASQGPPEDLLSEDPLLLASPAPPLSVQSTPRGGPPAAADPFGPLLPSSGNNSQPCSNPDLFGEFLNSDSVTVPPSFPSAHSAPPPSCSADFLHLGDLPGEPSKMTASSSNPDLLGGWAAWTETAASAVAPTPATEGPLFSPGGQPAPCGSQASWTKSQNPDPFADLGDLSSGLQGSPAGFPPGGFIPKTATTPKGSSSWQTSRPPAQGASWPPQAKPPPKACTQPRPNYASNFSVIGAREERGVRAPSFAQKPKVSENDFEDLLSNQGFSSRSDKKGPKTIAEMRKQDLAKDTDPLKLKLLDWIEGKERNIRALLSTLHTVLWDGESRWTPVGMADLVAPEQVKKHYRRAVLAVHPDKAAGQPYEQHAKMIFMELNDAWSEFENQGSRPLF
Method in brief: (§1)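 c-Ponatinib (25 nmol) immobilized on NHS-Sepharose was incubated with 10 mg whole cell lysate per replicate, in duplicate. Eluates were reduced, alkylated, trypsin-digested and analysed by gel-free 1D LC-MS/MS. Specificity was scored from Mascot, Phenyx and spectral counts, with competition by free compound.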

HSPA5 = HSPA5 (Homo sapiens, UniProt P11021)
Method in brief: as §1

MAP4K1 = MAP4K1 (Homo sapiens, UniProt Q92918)
Method in brief: as §1

UNC119B = UNC119B (Homo sapiens, UniProt A6NIH7)
Method in brief: as §1

HSPA5, sequence (P11021 19-654): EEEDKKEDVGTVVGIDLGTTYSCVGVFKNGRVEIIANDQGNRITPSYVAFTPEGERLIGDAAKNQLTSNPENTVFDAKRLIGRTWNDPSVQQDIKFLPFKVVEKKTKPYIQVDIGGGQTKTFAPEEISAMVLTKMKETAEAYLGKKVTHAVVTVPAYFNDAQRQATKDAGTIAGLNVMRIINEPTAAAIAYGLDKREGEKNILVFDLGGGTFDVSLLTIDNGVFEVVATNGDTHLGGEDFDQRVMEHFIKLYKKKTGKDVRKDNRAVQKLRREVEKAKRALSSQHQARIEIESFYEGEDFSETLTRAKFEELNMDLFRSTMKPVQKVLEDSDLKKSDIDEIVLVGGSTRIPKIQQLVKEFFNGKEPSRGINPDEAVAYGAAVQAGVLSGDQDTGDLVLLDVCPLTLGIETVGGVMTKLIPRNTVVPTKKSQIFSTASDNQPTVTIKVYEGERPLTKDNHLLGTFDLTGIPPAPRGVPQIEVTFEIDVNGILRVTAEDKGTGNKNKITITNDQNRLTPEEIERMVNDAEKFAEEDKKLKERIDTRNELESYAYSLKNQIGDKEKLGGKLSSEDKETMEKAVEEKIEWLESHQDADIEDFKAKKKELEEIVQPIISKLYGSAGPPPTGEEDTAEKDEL
UNC119B, sequence (A6NIH7 whole entry): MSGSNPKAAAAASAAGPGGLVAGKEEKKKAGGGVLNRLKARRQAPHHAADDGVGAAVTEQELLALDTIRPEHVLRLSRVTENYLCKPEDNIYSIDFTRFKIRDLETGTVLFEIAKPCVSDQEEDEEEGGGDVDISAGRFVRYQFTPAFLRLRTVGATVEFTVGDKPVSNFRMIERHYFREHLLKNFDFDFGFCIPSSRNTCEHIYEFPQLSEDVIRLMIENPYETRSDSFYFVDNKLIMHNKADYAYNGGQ
MAP4K1, sequence (Q92918 whole entry): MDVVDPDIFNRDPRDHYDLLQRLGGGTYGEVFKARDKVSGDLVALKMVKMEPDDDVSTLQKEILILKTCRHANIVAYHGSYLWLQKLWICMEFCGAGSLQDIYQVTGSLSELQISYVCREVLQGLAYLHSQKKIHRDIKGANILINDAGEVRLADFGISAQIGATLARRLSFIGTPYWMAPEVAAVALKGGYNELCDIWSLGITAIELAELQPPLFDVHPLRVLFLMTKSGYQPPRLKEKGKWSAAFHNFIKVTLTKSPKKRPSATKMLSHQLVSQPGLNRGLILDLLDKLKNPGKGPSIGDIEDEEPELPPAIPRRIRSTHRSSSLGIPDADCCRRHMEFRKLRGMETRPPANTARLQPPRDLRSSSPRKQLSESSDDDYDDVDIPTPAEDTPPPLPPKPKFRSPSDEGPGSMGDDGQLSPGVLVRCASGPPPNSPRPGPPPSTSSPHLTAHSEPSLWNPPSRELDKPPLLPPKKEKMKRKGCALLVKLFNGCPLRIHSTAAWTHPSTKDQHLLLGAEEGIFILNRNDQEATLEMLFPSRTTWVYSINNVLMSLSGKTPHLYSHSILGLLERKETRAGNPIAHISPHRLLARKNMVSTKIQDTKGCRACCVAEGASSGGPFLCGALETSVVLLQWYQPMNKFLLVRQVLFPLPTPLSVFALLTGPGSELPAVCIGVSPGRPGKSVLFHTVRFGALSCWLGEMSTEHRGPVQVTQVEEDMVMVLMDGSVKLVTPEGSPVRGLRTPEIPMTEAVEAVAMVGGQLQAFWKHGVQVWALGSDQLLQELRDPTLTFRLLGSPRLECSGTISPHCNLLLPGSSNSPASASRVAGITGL

Av. SC comp. (GAK; + free ponatinib): 10.25 | Total SC comp. (GAK; + free ponatinib): 41 | Av. SC (GAK; no competitor): 22.75 | Total SC (GAK; no competitor): 91 | Av. SC comp. (HSPA5; + free ponatinib): 2.75 | Total SC comp. (HSPA5; + free ponatinib): 11 | Av. SC (HSPA5; no competitor): 7 | Total SC (HSPA5; no competitor): 28 | Av. SC comp. (MAP4K1; + free ponatinib): 2.5 | Total SC comp. (MAP4K1; + free ponatinib): 10 | Av. SC (MAP4K1; no competitor): 46.75 | Total SC (MAP4K1; no competitor): 187 | Av. SC comp. (UNC119B; + free ponatinib): 0 | Total SC comp. (UNC119B; + free ponatinib): 0 | Av. SC (UNC119B; no competitor): 6 | Total SC (UNC119B; no competitor): 24
SMILES: Cc1ccc(C(=O)Nc2ccc(CN3CCN(CCCN)CC3)c(C(F)(F)F)c2)cc1C#Cc1cnc2cccnn12 [c-ponatinib]
